# Reference: the supplement of paper PMC10307832
# What was measured:
# Assay in all cases: relative viability (nuclei count vs DMSO), 5 days (fraction); higher = more cells survive
# [1] = compound: COc1nc(N)nc2c1ncn2[C@@H]1O[C@H](CO)[C@@H](O)[C@@H]1O [Nelarabine] + CC1(C)CCC(c2ccc(Cl)cc2)=C(CN2CCN(c3ccc(C(=O)NS(=O)(=O)c4ccc(N[C@H](CCN5CCOCC5)CSc5ccccc5)c(S(=O)(=O)C(F)(F)F)c4)cc3)CC2)C1 [Navitoclax] (partner 0.5 µM)
# In short: (§1)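 After 5 days of treatment, lung cancer cells in 1536-well plates were fixed and stained in a single step (final 0.05% Triton X-100, 1% formaldehyde, 1 ug/ml Hoechst) and their nuclei counted on 4× images. Treatment had been applied by pin tool the day after seeding as one drug alone or as a fixed anchor-drug dose with five library-drug doses (not always all listed) in √10 steps. Relative viability is the nuclei count of treated wells divided by that of vehicle wells, and values are medians of duplicate plates.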
# [2] = compound: C=CCn1c(=O)c2cnc(Nc3ccc(N4CCN(C)CC4)cc3)nc2n1-c1cccc(C(C)(C)O)n1 [Adavosertib] + N=C(N)NC(=N)NCCc1ccccc1 [Phenformin] (partner 250 µM)
# In short: as §1
# [3] = compound: C=CCn1c(=O)c2cnc(Nc3ccc(N4CCN(C)CC4)cc3)nc2n1-c1cccc(C(C)(C)O)n1 [Adavosertib] + CC(=O)Nc1cccc(-n2c(=O)n(C3CC3)c(=O)c3c(Nc4ccc(I)cc4F)n(C)c(=O)c(C)c32)c1 [Trametinib] (partner 0.02 µM)
# In short: as §1
# [4] = compound: C=CCn1c(=O)c2cnc(Nc3ccc(N4CCN(C)CC4)cc3)nc2n1-c1cccc(C(C)(C)O)n1 [Adavosertib] + Nc1ncn([C@H]2C[C@H](O)[C@@H](CO)O2)c(=O)n1 [Decitabine] (partner 2 µM)
# In short: as §1
Cell Line,relative viability ([1]; first compound 0.01 µM),relative viability ([1]; first compound 0.03162 µM),relative viability ([1]; first compound 0.3162 µM),relative viability ([1]; first compound 1 µM),relative viability ([2]; first compound 0.01 µM),relative viability ([2]; first compound 0.03162 µM),relative viability ([2]; first compound 0.1 µM),relative viability ([2]; first compound 0.3162 µM),relative viability ([3]; first compound 0.01 µM),relative viability ([3]; first compound 0.03162 µM),relative viability ([3]; first compound 0.1 µM),relative viability ([3]; first compound 0.3162 µM),relative viability ([4]; first compound 0.01 µM),relative viability ([4]; first compound 0.03162 µM),relative viability ([4]; first compound 0.1 µM),relative viability ([4]; first compound 0.3162 µM),relative viability ([1]; first compound 0.1 µM)
NCI-H3122,1.04,0.668,1.04,1.05,0.365,0.402,0.355,0.365,0.201,0.198,0.272,0.227,0.41,0.49,0.484,0.494,–
NCI-H838,1.48,1.13,1.26,1.25,0.57,0.502,0.525,0.655,0.488,0.531,0.503,0.582,0.516,0.53,0.612,0.497,1.22
H3255,0.59,0.486,0.6,0.622,0.351,0.369,0.363,0.336,0.576,0.591,0.616,0.634,0.636,0.694,0.609,0.674,0.625
NCI-H2085,1.08,1.08,1.18,1.18,0.668,0.757,0.784,0.761,0.544,0.568,0.435,0.524,0.547,0.504,0.574,0.47,1.18
NCI-H1355,1.1,0.818,1.01,0.991,0.474,0.455,0.426,0.403,0.442,0.373,0.445,0.457,0.347,0.351,0.396,0.368,0.923
SK-MES-1,1.36,1.55,1.09,1.29,0.66,0.704,0.635,0.208,0.556,0.576,0.529,0.486,0.368,0.385,0.364,0.227,1.13
NCI-H1755,1.06,0.846,1.14,1.03,0.643,0.615,0.613,0.63,0.818,0.78,0.818,0.744,0.717,0.689,0.775,0.725,0.555
COR-L 105,0.936,0.956,0.819,0.795,0.558,0.443,0.467,0.409,0.436,0.463,0.48,0.347,0.691,0.6,0.618,0.651,0.733
